Measured values taken from ChEMBL document CHEMBL1122276, “6-Chloro-2,3,4,5-tetrahydro-3-methyl-1H-3-benzazepine: a potent and selective antagonist of alpha 2-adrenoceptors” (J Med Chem, 1983).

Legend:
Cavia porcellus [1] = organism: Cavia porcellus; assay: Concentration-related inhibition of response to sympathetic nerve stimulation in isolated guinea pig atrium mediated by alpha-2 receptors; type: functional; settings: Cardiac atrium
Cavia porcellus [2] = organism: Cavia porcellus; assay: Dissociation constant (KB) for competitive inhibition of BHR 920 induced depression of neurotransmission in isolated guinea pig atrium; type: functional; settings: Cardiac atrium
Canis familiaris = organism: Canis familiaris; assay: Effective concentration of 100% release of [3H]norepinephrine from electrically stimulated dog splenic arteries; type: functional, Canis lupus familiaris
Oryctolagus cuniculus = organism: Oryctolagus cuniculus; assay: Ability to block the norepinephrine constrictor response in the rabbit ear artery in a competitive fashion; type: functional

Structure (SMILES): C=CCN1CCc2nc(N)sc2CC1 [TALIPEXOLE]
- EC50 (Cavia porcellus [1]): 100 nM

Structure (SMILES): CN1CCc2cccc(Cl)c2CC1.Cl
- Kb (Cavia porcellus [2]): 17 nM
- EC100 (Canis familiaris): 210 nM
- Kb (Oryctolagus cuniculus): 900 nM
